# From patent publication US20210207099A1, “METHODS AND COMPOSITIONS FOR GENERATING CELLS OF ENDODERMAL LINEAGE AND BETA CELLS AND USES THEREOF” (priority 2018, published 2021)
# Experiments:
# Assay type in all cases: cell-based, human
# [1] = test system: TGFβ signaling (phosphorylated SMAD); assay: Western blot of SMAD 2/3 phosphorylation in Stage 6 cells; conditions: lesser extent than Alk5i
# Experimental: Protein was extracted from cell clusters after washing with PBS by placing in western blot lysis buffer consisting 50 mM HEPES, 140 mM NaCl (MilliporeSigma; 7647-14-5), 1 mM EDTA (MilliporeSigma, 1233508), 1% Triton X-100, 0.1% Na-deoxycholate (MilliporeSigma: D6750), 0.1% SDS (ThermoScientific; 24730020), 1 mM Na3VO4 (MilliporeSigma; 450243), 10 mM NaF (MilliporeSigma; S7920), and 1% Protease Inhibitor Cocktail (MilliporeSigma; p8340), incubating on a shaker for 15 min at 4° C., and centrifuging at 10000 RCF for 10 min at 4° C. Protein amount was quantified with the Pierce BCA Protein Assay (Thermo Scientific; 23228). Protein (30 μg) was loaded onto a 4-20% gradient polyacrylamide gel (Invitrogen; SP04200BOX), resolved by electrophoresis, and transferred onto a 0.45 μm nitrocellulose membrane (BioRad; 1620115). The nitrocellulose membrane was blocked with Blotting Grade Blocker (BioRad; 170-6404) and incubated with rabbit-anti-phospho-SMAD⅔ 1:1000 (Cell Signaling Technologies; 8828) and rabbit-anti-Actin 1:1000 (Santa Cruz Biotechnology; SC1616) antibodies in blocker overnight at 4° C. Membrane was washed and stained with rabbit secondary antibody 1:2500 (Jackson Immuno Research Laboratories; 211-032-171) in blocker for 2 hr at 4° C. and developed using SuperSignal West Femto (Thermo Scientific; 34096). Images were taken on an Odyssey FC (Li-COR). After imaging, the nitrocellulose membrane was stripped using Restore Western Blot Stripping Buffer (Thermo Scientific; 21059), incubated with rabbit-anti-SMAD⅔ (Cell Signaling Technologies; 8685) antibody overnight at 4° C., washed and stained with rabbit secondary antibody 1:2500 in blocker for 2 hr 4° C., developed using SuperSignal West Femto, and imaged using the Odyssey FC.
# TGFBR1 = assay: Lentiviral shRNA knockdown of TGFBR1 in Stage 6 cells; conditions: real-time PCR
# Experimental: TBP was used as a normalization gene.
# pLKO.1 TRC plasmids containing shRNA sequences contained the following sequences: shRNA GFP, […] (SEQ ID NO: 89); shRNA TGFBR1 #1, […] (SEQ ID NO: 90); shRNA TGFBR1 #2, […] (SEQ ID NO: 91). Lentivirus particles were generated and titered using pMD-Lgp/RRE and pCMV-G, and RSV-REV packaging plasmids to contain shRNA. Stage 6 Day 1 cells were single cell dispersed using TrypLE, and 3 million cells were seeded in 4 mL ESFM lentivirus particles at MOI 3-5 on the shaker. Transduced cells were washed with fresh ESFM 16 hr post transduction. RNA extraction and static GSIS was performed on stage 6 day 13.
# [2] = test system: HUES8 cells, exocrine differentiation protocol; assay: Exocrine pancreas differentiation with cytoskeletal compounds; conditions: 1 μM for the entirety of stage 4
# Experimental: (§1) For differentiation to other endodermal lineages, HUES8 stem cells were cultured and passaged normally. Differentiations were initiated 24 hours after seeding 24-well plates at 0.521×10^6 cells/cm^2. Protocols for exocrine pancreas, intestine, and liver were adapted, from literature. Either latrunculin A or nocodazole were added as indicated in each protocol. All three differentiation protocols used the same stage 1 to induce endoderm. Stage 1 (4 days): BE1 media+100 ng/mL Activin A+3 μM CHIR99021 for the first 24 hours, followed with 3 days of BE1 containing 100 ng/mL Activin A only.
# Exocrine Pancreas: Stage 2 (2 days): BE2 media+50 ng/mL KGF. Stage 3 (2 days): BE3+50 ng/mL KGF, 200 nM LDN193189, 500 nM TPPB, 2 μM retinoic acid, and 0.25 μM SANT1. Stage 4 (4 days): BE3+50 ng/mL KGF, 200 nM LDN193189, 500 nM TPPB, 0.1 μM retinoic acid, and 0.25 μM SANT1. Either 1 μM latrunculin A was added for the first 24 hours of this stage, or 1 μM nocodazole was added for the entirety of stage 4. Stage 5 (6 days): S5 media+10 ng/mL bFGF. 10 mM nicotinamide (MilliporeSigma, 72340) was added for the last two days.
# [3] = test system: HUES8 cells, intestinal differentiation protocol; assay: Intestine differentiation with cytoskeletal compounds; conditions: 1 μM for the entirety of stage 2
# Experimental: as §1
# Intestine Differentiation: Stage 2 (4 days): BE2 media+3 μM CHIR99021+500 ng/mL FGF4 (R&D Systems, 235-F4). Either 1 μM latrunculin A was added for the first 24 hours of this stage, or 1 μM nocodazole was added for the entirety of stage 2. Stage 3 (7 days): BE3 media+500 ng/mL R-spondin1 (R&D Systems, 4645-RS)+100 ng/mL EGF (R&D Systems, 236-EG)+200 nM LDN193189.
# [4] = test system: plated pancreatic progenitors; assay: Single-cell RNA sequencing of plated pancreatic progenitors treated throughout stage 4; conditions: 5 μM nocodazole throughout stage 4
# Experimental: Cells generated with the suspension protocol were single-cell dispersed with TrypLE from clusters at the end of stage 3 and seeded onto collagen 1 coated 24-well plates at 0.625×10^6 cells/cm^2. Either 0.5 μM latrunculin A or 5 μM nocodazole were added throughout the entirety of stage 4. At the end of stage 4, cells were single-cell dispersed, suspended in DMEM, and submitted to the Washington University Genome Technology Access Center. Library preparation was done using the Chromium Single Cell 3′ Library and Gel Bead Kit v2 (10× Genomics, 120237). Briefly, single cells were isolated in emulsions using a microfluidic platform, and each single cell emulsion was barcoded with a unique set of oligonucleotides. The GemCode Platform was used to carry out reverse transcription within each single cell emulsion, which was amplified to construct a library. The libraries were sequenced with paired-end reads of 26×98 primerbp using the Illumina HiSeq2500.
# Seurat v2.0 was used to perform single cell RNA analyses. Duplicate cells and cells with high mitochondrial gene expression were filtered out using FilterCells (>9000 total genes and >5% mitochondrial genes for Untreated Control, >6000 genes and >6% mitochondrial genes for latrunculin A, >12000 genes and >4% mitochondrial genes for nocodazole). Each data set was normalized using global-scaling normalization. FindVariableGenes identified and removed outlier genes using scaled z-score dispersion. The datasets were then combined and a canonical correlation analysis (CCA) was performed with RunMultiCCA. AlignSubspace was used to align the CCA subspaces and generated a new dimension reduction for integrated analysis. Unsupervised TSNE plots were generated using RunTSNE, and the resulting clusters were defined and labeled using FindMarkers. VInPlot (Violin plots) and FeaturePlot (tsne plots) were used to visualize differences in gene expressions across each cluster and conditions.
# [5] = test system: HUES8 cells, hepatic differentiation protocol; assay: Liver differentiation with cytoskeletal compounds; conditions: 1 μM for the first 24 hours of stage 3
# Experimental: as §1
# Liver Differentiation: Stage 2 (2 days): BE2 media+50 ng/mL KGF. Stage 3 (4 days): BE3 media+10 ng/mL bFGF+30 ng/mL BMP4 (R&D Systems, 314-BP). For the first 24 hours only, 2 μM retinoic acid and either 1 μM latrunculin A or 1 μM nocodazole were added. Stage 4 (5 days): BE3 media+20 ng/mL OSM (R&D Systems, 295-OM)+20 ng/mL HGF (R&D Systems, 294-HG)+100 nM dexamethasone (MilliporeSigma, D4902).
Compound,SMAD phosphorylation after shRNA transduction [1],TGFBR1 transcript compared to control virus targeting GFP (TGFBR1),endocrine induction [2],"trypsin gene expression (PRSS1, PRSS2) and immunostaining [2]",CDX2 gene expression and immunostaining [3],percentage of exocrine-like progenitors [4] [%],hepatocyte gene expression [5],immunostaining for albumin [5]
"TGFBR1 #1: lentivirus carrying shRNA against TGFBR1, GATCATGATTACTGTCGATAA (SEQ ID NO: 90)",reduced SMAD phosphorylation,reducing TGFBR1 transcript,–,–,–,–,–,–
"TGFBR1 #2: lentivirus carrying shRNA against TGFBR1, GCAGGATTCTTTAGGCTTTAT (SEQ ID NO: 91)",reduced SMAD phosphorylation,reducing TGFBR1 transcript,–,–,–,–,–,–
COC(=O)Nc1nc2ccc(C(=O)c3cccs3)cc2[nH]1 [nocodazole],–,–,inhibited endocrine induction,greatly increased trypsin gene expression,greatly increased CDX2 gene expression and immunostaining,67.0,increased hepatocyte gene expression,more abundant with nocodazole treatment
